Measurements as given in PMC12521527, “In vivo self-assembled nano-PROTAC for the dual degradation of AR and HSP90 to overcome castration-resistant prostate cancer resistance” (Signal Transduction and Targeted Therapy, 2025).

Tested on: 22Rv1 xenograft tumor
Assay: Antitumor efficacy in 22Rv1 xenograft mice
Assay type: in vivo, BALB/c nude mice
Details: comparison study, n = 6; for tumor volume: 20 days, Psa-AR 30 mg/kg i.v. every 2 days x5, enzalutamide 25 mg/kg, pimitespib 15 mg/kg, PBS 1017 mm^3; for median survival: PBS 21 days
From the text: To evaluate the therapeutic potential and superiority of Psa-AR in prostate cancer, we established subcutaneous xenograft tumor models using AR-mutant 22Rv1 cells.[51] All procedures strictly complied with the Guide for the Care and Use of Laboratory Animals and were approved by the Committee for Animal Research of the National Center for Nanoscience and Technology. When the tumor volume reached ~100 mm³, 22Rv1-bearing mice were randomized into three groups (n = 6/group): the PBS control, Psa-AR, and P-AR groups. Treatments were administered via tail vein injection every other day for five cycles. The tumor volume and body weight were monitored every other day for 20 days (Fig. 6a). […] The individual tumor growth curves for each group are presented in Supplementary Fig. 20. No obvious body weight loss was observed during treatment (Fig. 6c). […] To elucidate the mechanistic basis of tumor suppression, we quantitatively assessed AR and HSP90 protein expression in excised tumor tissues through IF. […] This dual-target degradation profile directly correlates with the observed therapeutic efficacy, validating the assembly driven target engagement and degradation strategy. […] To address the critical limitations of conventional PROTACs, particularly the Hook effect-induced nonlinear pharmacokinetics and narrow therapeutic window. We rigorously evaluated the dose-responsive antitumor efficacy of Psa-AR in 22Rv1 xenograft models. Mice bearing subcutaneous tumors received escalating doses (10, 20, or 30 mg/kg) via intravenous administration every 48 h for five consecutive treatment cycles. The tumor volume and body weight were evaluated for 20 days. Tumor volume was suppressed in a dose-dependent manner, with a mean tumor volume of […], a mean tumor volume of 536 mm^3 at 20 mg/kg and a mean tumor volume of 220 mm^3 at 10 mg/kg (Fig. 6h). The individual tumor growth curves for each group are presented in Supplementary Fig. 21. […] IF analysis of tumor sections provided spatially resolved dose-dependent quantification of AR and HSP90 proteolysis. […] Collectively, the dose-dependent tumor suppression and coordinated target proteolysis observed in the 22Rv1 xenograft model mechanistically validated the therapeutic superiority of in situ self-assembled Psa-AR. To systematically evaluate the therapeutic advantages of the dual-protein targeting strategy of Psa-AR through simultaneous degradation of AR and HSP90 in overcoming tumor drug resistance, this study compared the antitumor efficacy of Psa-AR with that of current clinical regimens (including the AR inhibitor enzalutamide, the HSP90 inhibitor pimitespib, and their combination) in 22Rv1 xenograft models (Fig. 7a). The experimental protocol was designed as follows: When the tumor volume reached ~100 mm³, the tumor-bearing mice were
Fig. 6 In vivo antitumor efficacy of Psa-AR. a Schematic illustration of the tumor inoculation and treatment protocol for 22Rv1 xenograft mice. (n = 6 per group) b Observation of the tumor inhibitory effect on 22Rv1 xenograft mice in PBS, P-AR, or Psa-AR (20 mg/kg in 200 μL of PBS) over 20 days of treatment. c Body weight changes in 22Rv1 xenograft mice in different treatment groups over 20 days. d Kaplan‒Meier survival curves of 22Rv1 xenograft mice in different groups over 20 days of treatment. e Immunofluorescence analysis of AR protein levels in 22Rv1 tumor tissues after treatment with PBS, P-AR, or Psa-AR (20 mg/kg in 200 μL of PBS) for 20 days. Scale bar: 20 μm. f Immunofluorescence analysis of the HSP90 protein levels in 22Rv1 tumor tissues after treatment with PBS, P-AR, or Psa-AR (20 mg/kg in 200 μL of PBS) for 20 days. Scale bar: 20 μm. g Terminal deoxynucleotidyl transferase (TdT) dUTP nick-end labeling (TUNEL) staining of tumors after treatment with PBS, P-AR, or Psa-AR (20 mg/kg in 200 μL of PBS) for 20 days. […]

| Structure (SMILES) | tumor volume [mm^3] | median survival [days] |
| --- | --- | --- |
| CNC(=O)c1ccc(N2C(=S)N(c3ccc(C#N)c(C(F)(F)F)c3)C(=O)C2(C)C)cc1F [enzalutamide, reference compound] | 765 | 27 |
| CCc1cc(C(N)=O)ccc1-n1nc(C(C)C)c2c(-n3cnc(-c4cnn(C)c4)c3)ccnc21 [pimitespib, reference compound] | 742 | 29 |
